Patent publication US20240382432A1, “SINGLE CHAIN VARIABLE FRAGMENT (SCFV) MODIFIED LIPID NANOPARTICLE COMPOSITIONS AND USES THEREOF” (Generation Bio Co., priority 2021, published 2024)

Assays:
HER2 receptor [1] = assay: HER2 scFv binding in cell-based assay (Alexa-fluor 488 labeled scFv); design: species or system human
Description: (§1) As proof of concept, HER2 scFv binding and internalization in cell-based assays in vitro was carried out.

HER2 receptor [2] = assay: HER2 scFv ligand internalization in cell-based assay (pHrhodo label); design: species or system human; conditions: MCF7 HER2- cell line; FIG. 1F
Description: as §1

HER2 receptor [3] = target: T1, HER2 receptor (Homo sapiens, UniProt P04626); assay: as above
T1 construct: endogenous in cells; host or cells: Sk-BR3, Sk-OV3 (HER2+); MCF7 (HER2-, negative control)
Description: as §1

“trastuzumab-derived α-HER2 scFv: trastuzumab-derived single-chain variable fragment directed against HER2 (SEQ ID NO:1 core sequence)” was tested, and the HER2 receptor engagement (HER2 receptor [1]; MCF7 cells, do not express HER2 receptor (HER2-), FIG. 1C) was “not in MCF7 cells”, the HER2 receptor engagement (HER2 receptor [1]; Sk-BR3 HER2 expressing (HER2+) cell line, FIG. 1A) was “HER2 receptor engagement” and the HER2 receptor engagement (HER2 receptor [1]; Sk-OV3 HER2 expressing (HER2+) cell line, FIG. 1B) was “HER2 receptor engagement”. For the same substance, the ligand internalization (HER2 receptor [2]) was “did not”, the ligand internalization (HER2 receptor [3]; Sk-BR3 cells (HER2+), FIG. 1D) was “showed ligand internalization” and the ligand internalization (HER2 receptor [3]; Sk-OV3 cells (HER2+), FIG. 1E) was “showed ligand internalization”.
